This note sets out measurements from patent publication US8629251B2, “Specific detection and quantification of phosphatidic acid using an Arabidopsis trigalactosyldiacylglycerol-4 (TGD4) protein” (Board of Trustees of Michigan State University, priority 2008, dated 2014).

Where no end group is shown, it is not given here.

The target of data set [1] is T1, Arabidopsis TGD4, DsRED-TGD4-His, full-length TGD4 1-479 (SEQ ID NO: 132) (Arabidopsis thaliana, UniProt Q9M903).
T1 sequence (Q9M903 1-479): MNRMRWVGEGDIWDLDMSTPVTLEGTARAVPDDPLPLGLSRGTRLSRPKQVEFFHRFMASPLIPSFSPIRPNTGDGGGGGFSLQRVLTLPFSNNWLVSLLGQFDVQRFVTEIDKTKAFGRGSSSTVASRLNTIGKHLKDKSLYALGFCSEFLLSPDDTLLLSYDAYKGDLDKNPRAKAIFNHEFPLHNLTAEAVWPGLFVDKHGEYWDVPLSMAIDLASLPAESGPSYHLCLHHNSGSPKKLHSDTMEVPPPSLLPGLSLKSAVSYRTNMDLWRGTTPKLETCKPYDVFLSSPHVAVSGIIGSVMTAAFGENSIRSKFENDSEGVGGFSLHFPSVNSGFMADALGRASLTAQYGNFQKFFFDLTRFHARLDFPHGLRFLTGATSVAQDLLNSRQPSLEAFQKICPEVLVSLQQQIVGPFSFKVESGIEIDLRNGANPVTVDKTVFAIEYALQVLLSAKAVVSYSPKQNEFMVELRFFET
In words: Liposome association assay, DsRED-TGD4-His. It counts as binding. As to conditions: 40 mol % PtdOH and 60 mol % PtdCho liposomes, FIG. 18C, D. The procedure:
Liposome Association Assay:
(§1) The liposome association assay was adapted from (Awai et al., 2006, Lu and Benning, 2009) with minor modifications. Dioleoyl-PtdCho and PtdOH with different acyl chain lengths and desaturation levels were used for making liposomes. In other liposomes 1-palmitoyl-2-(12-((7-nitro-2-1,3-benzoxadiazol-4-yl)amino)dodecanoyl)-sn-glycero-3-phosphate (NBD-PtdOH; Avanti, Alabaster, Ala.) was used. The lipids were mixed at indicated ratios to give a total lipid amount of 250 μg. The lipids were dried under a stream of nitrogen, resuspended in 0.5 ml TBS buffer with 0.2 M choline chloride and hydrated at 37° C. for 1 hour followed by vigorous vortexing for 2 minutes. The resulting multi-lamellar vesicles were centrifuged at 13,000×g for 10 minutes and then washed once with TBS buffer containing 0.2 M choline chloride. The liposomes were resuspended into 100 μl TBS buffer with 0.2 M choline chloride and incubated with 2 μg purified DsRED-TGD4-His protein and its derivatives. The protein liposome mixture was incubated on ice for 30 minutes followed by centrifugation at 13,000×g for 10 minutes and two washes with 500 μl TBS containing 0.2 M choline chloride. The resulting protein-liposome pellet was resuspended in 20 μl 2× Laemmli buffer (Laemmli, 1970) and processed by SDS-PAGE (Shapiro and Maizel, 1969).

Data set [2] can be described thus: Liposome-association assay of DsRed-TGD2 fusion proteins. As to conditions: PA/PC or 100% PA liposomes. It counts as binding. The protocol:
In this assay, purified recombinant proteins were incubated with liposomes for 30 min at 30° C. before centrifugation at 20,000 g for 10 min to pellet the liposomes. Proteins bound to the liposomes were found associated with the lipid pellet, whereas non-binding proteins remained in the supernatant. In an effort to determine the optimal concentration of PA required for high specificity binding, a PA/PC liposome mixture containing varying weight fractions of PA was prepared and incubated with DsRed-TGD2CWT or DsRed alone.
The liposome association assay was performed as previously reported. (31). Briefly, lipids (dioleoyl-phosphatidylcholine, DOPC or dioleoyl-PA, DOPA) were incubated in TBS (50 mM Tris-HCl, pH 7; 0.1 M NaCl) at 37° C. for an hour followed by vigorous vortexing for 5 min. The liposomes were precipitated at 20,000 g and washed twice with ice-cold TBS.
Liposomes (200 μg) were mixed with purified DsRed-TGD2 fusion protein and TBS to make a final 100 μL solution. […] The liposome pellet mixed with sample buffer was analyzed by SDS-PAGE (28). […]
The protein band was visualized by chemiluminescent detection kit from Sigma. The autoradiography film was scanned, distinct protein bands were quantified using computer software Multi Gauge V3.0 (Fujifilm USA, Valhalla, N.Y.) and resulted data were plotted and analyzed by OriginPro8 (Origin lab corporation, Northampton, Mass.).

The target of the next data set is T2, DsRED-TGD4-His (Arabidopsis thaliana, UniProt Q9M903).
T2 construct: the DsRED protein was fused to the N-terminus of the full-length TGD4 protein; made in house; host or cells: E. coli BL21 (DE3)
T2 sequence (Q9M903 1-479): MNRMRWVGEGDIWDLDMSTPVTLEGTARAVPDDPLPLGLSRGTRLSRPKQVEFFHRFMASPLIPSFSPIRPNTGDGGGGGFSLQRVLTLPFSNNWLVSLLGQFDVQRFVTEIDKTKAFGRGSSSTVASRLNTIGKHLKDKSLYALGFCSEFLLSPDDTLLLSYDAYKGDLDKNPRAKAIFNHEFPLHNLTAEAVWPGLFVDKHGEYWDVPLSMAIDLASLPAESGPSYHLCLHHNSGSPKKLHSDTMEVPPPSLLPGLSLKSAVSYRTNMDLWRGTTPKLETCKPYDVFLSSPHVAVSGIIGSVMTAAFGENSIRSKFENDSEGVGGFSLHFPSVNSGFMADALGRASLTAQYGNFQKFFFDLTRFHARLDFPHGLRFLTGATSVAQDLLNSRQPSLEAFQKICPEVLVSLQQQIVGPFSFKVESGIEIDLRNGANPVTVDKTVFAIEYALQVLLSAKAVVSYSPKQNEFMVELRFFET
In words: Precipitation / stabilizer test of DsRED-TGD4-His. As to conditions: 5 μg protein with stabilizer, 4° C., 2 hours, 13,000×g pellet by SDS-PAGE. It counts as physicochemical. The protocol:
FIG. 23A: 5 μg DsRED-TGD4-His was incubated with various protein stabilizers at 4° C. for 2 hours followed by centrifugation at 13,000×g for 10 minutes. The pellet was analyzed by SDS-PAGE. TBS: Tris-buffered saline, Glycerol: 20% glycerol; PEG: 20% polyethylene; Pectin: 5% pectin; ChoCl: 1 M choline chloride; Glycine: 1 M glycine; Urea: 1 M urea; BSA: 0.5 mg/ml bovine serum albumin; PBS: phosphate-buffered saline.
FIG. 23B: 5 μg DsRED-TGD4-His was treated with either 2 M sodium chloride or choline chloride as described above.
Lipid binding properties of TGD4 were investigated by producing TGD4 fused to DsRED. The DsRED protein is a red fluorescent protein of the coral Discosoma sp. (Gross et al., 2000, herein incorporated by reference).

The nature of data set [3]: Protein-lipid overlay assay of DsRED-TGD4 fusion proteins. It counts as binding. The protocol: The protein-lipid overlay assay was modified from (Awai et al., 2006, Lu and Benning, 2009). Phosphoinositol-4,5-bisphosphate PIP2) lipid strips were purchased from Echelon Biosciences (Salt Lake City, Utah). Lipids spotted onto membranes were purchased from Avanti Polar Lipids (Alabaster, Al.) as well as Larodan Fine Chemicals (Malmo, Sweden). Lipids (10 nmol) were suspended in 20 μl spotting buffer (250 μl chloroform, 500 μl methanol, 200 μl 50 mM HCl, 2 μl 1% (w/v) Ponseau S (Sigma, St. Louis, Mo.)) and spotted onto Amersham Hybond-C Extra membranes (GE Healthcare, Piscataway, N.J.) followed by drying for 1 hour in a fume hood. The lipid membranes were then blocked in 3% (w/v) bovine serum albumin (BSA) in TBST buffer (TBS with 0.25% (v/v) Tween 20) for 2 hours at room temperature. Purified DsRED-TGD4-His fusion proteins were added at 1 μg/ml final concentration and incubated overnight at 4° C. followed by washing 3 times in TBST. Lipid membranes were then incubated with 1:2000 diluted His antibody (Sigma) in blocking buffer for 2 hours at room temperature followed by 2 washes with TBST. The membranes were processed for immunoblotting as described below.

Data set [4] can be described thus: Liposome association assay of DsRED-TGD4-His and derivatives. It counts as binding. As to conditions: dioleoyl-PtdOH/dioleoyl-PtdCho liposomes, 0 to 80% PtdOH by weight, FIG. 19. The protocol:
as §1

For `CCCCCCCCCCCCCCCC(=O)OC[C@H](COP(=O)(O)O)OC(=O)CCCCCCCCCCCNc1ccc([N+](=O)[O-])c2nonc12` [1-palmitoyl-2-(12-((7-nitro-2-1,3-benzoxadiazol-4-yl)amino)dodecanoyl)-sn-glycero-3-phosphate], the “binding to PtdOH species in liposomes” value in data set [1] is given as “did not bind”.
In the case of “DR-25: DsRed fused to the TGD2 minimal PA binding domain, residues 201-225 (SEQ ID NO: 12) (IMPRNPIPEPSVGPLHPECGKEGLI; also: fused to DsRed, end not given here; UniProt Q9LTR2 201-225, looked up, fragment)”, the “PA binding in liposome-association assay” value was “necessary and sufficient for PtdOH binding” in data set [2] (listed as 25-amino-acid segment); “much less overall binding” in data set [2] (listed as region between residues 201 and 225 (SEQ ID NO:12)).
In the case of `CCCCCCCCCCCCCCCC(=O)OC[C@H](COP(=O)(O)O)OC(=O)CCCCCCCCCCCCCCC` [dipalmitoyl PtdOH, dipalmitoyl phosphatidic acid], the “binding to PtdOH species in liposomes” value in data set [1] was “bind”.
As to `[Cl-].[Na+]` [NaCl, sodium chloride], at DsRED-TGD4-His, the “stabilization of DsRED-TGD4-His against precipitation” value is “not able to stabilize DsRED-TGD4-His”.
`C[N+](C)(C)CCO.[Cl-]` [Choline chloride, choline chloride]: the “stabilization of DsRED-TGD4-His against precipitation” value is “minimize precipitation” at DsRED-TGD4-His and “stabilized DsRED-TGD4-His” at DsRED-TGD4-His (listed as choline chloride).
Take `CCCCCCCCCCCCCCCCCC(=O)OC[C@H](COP(=O)(O)O)OC(=O)CCCCCCCCCCCCCCCCC` [distearoyl PtdOH, distearoyl phosphatidic acid]: the “binding to PtdOH species in liposomes” value in data set [1] is recorded as “appeared to be stronger”.

B1: DsRED-His: DsRED-His protein itself, control without TGD4 (protein, UniProt Q9U6Y8 1-225, looked up)
Red fluorescent protein …: MRSSKNVIKEFMRFKVRMEGTVNGHEFEIEGEGEGRPYEGHNTVKLKVTKGGPLPFAWDILSPQFQYGSKVYVKHPADIPDYKKLSFPEGFKWERVMNFEDGGVVTVTQDSSLQDGCFIYKVKFIGVNFPSDGPVMQKKTMGWEASTERLYPRDGVLKGEIHKALKLKDGGHYLVEFKSIYMAKKPVQLPGYYYVDSKLDITSHNEDYTIVEQYERTEGRHHLFL
modifications: His-tag
notes: DsRED-His protein itself, control without TGD4
With B1, the “lipid binding in overlay, phospholipids” value in data set [3] (commercially available membranes, FIG. 18A) is listed as “not observed to bind to any of the lipids on either membrane tested”. Moreover, the “lipid binding in overlay, plant/chloroplast lipids” value in data set [3] (lipids manually spotted onto membranes, FIG. 18B) is on record as “not observed to bind to any of the lipids on either membrane tested”. Further, the “PtdOH binding affinity of TGD4 derivatives” value in data set [4] is “Except for DsRED-His alone, tested recombinant fusion proteins bound to PtdOH-containing liposomes”.
